Assay results: patent publication US9475842B2, “Hexadepsipeptide analogues as anticancer compounds” (PIRAMAL ENTERPRISES LIMITED, priority 2012, dated 2016)

Columns and labels:
[1] = test system: MCF-10A, a non-tumourigenic cell line; assay: Monolayer assay (CCK-8 cytotoxicity), normal cells; type: cell-based; details: MCF10A, Normal Breast Epithelium, 24 hrs exposure, CCK-8
Protocol: (§1) The assays were designed as in the reference, BMC Cancer, 2010, 10, 610, 1-11; the disclosure of which is incorporated by reference for the teaching of the assay.
(§2) Human tumour cell lines: Panc-1 (Pancreatic Cancer), HCT 116 (Colorectal Cancer), ACHN (Renal Cell Carcinoma), Calu-1 (Lung Carcinoma), MiaPaca2 (Pancreatic Cancer), FADU (Head and Neck Cancer), PC3 (prostate Cancer), G361 (Melanoma), MDA-MB435S (Melanoma), HeLa (Cervical Cancer) were grown in Minimal Essential Media with Eagle's Basal Salts (MEM-EBS) obtained from AMIMED (BioConcept-Switzerland). Tumour cell lines: MDA-MB231 (Breast Cancer), JURKAT (T cell leukaemia), H460 (Small Cell Lung Cancer) were cultured in RPMI 1640 (AMIMED, BioConcept, Switzerland) medium. All tumour cell lines were supplemented with 10% Foetal Bovine Serum (FBS) (GIBCO), 1% Penicillin/Streptomycin (Sigma) and 1% Anti-Anti (GIBCO) and grown in T-175 tissue culture flasks (Nunc). MCF-10A, a non-tumourigenic cell line, was cultured in Mammary Epithelial Basal Medium (MEBM) with all standard additions (Lonza, Catalog. No. CC-3150). All cells were grown in 5% CO2 incubator at 37° C. Cells were passaged at 80-90% confluence. Adherent cells were trypsinised using Trypsin-EDTA (Sigma) and maintained. All cell lines were purchased from ATCC (Rockville, Md., USA).
Compound of Formula (1a) [described in example 7] was dissolved in DMSO to give a required stock solution of 20 mM. Eight different concentrations of the compound of Formula (1a) were prepared by serial dilution of stock solution finally resulting in a (compared to the test concentration) 200-fold higher concentration. Compound of Formula (1a) was tested at the concentration of 0.0001 μM, 0.001 μM, 0.01 μM, 0.03 μM, 0.1 μM, 0.3 μM, 1 μM and 3 μM respectively. Each concentration was evaluated in triplicate.
Method for determination of IC50 of the compound of Formula (1a): • a) Different cancer/normal cells were seeded at a density of 3000 cells/200 μL well, in a tissue culture grade 96 well plate and allowed them to recover for 24 hrs in a humidified 5±0.2% CO2 incubator at 37±0.5° C. • b) After 24 hrs, 1 μL of 200× (200 times higher than required concentration is denoted as 200×) compound of Formula (1a), dissolved in DMSO, was added to the above tissue culture plate seeded with cancer/normal cells. The final concentration of DMSO was 0.5% in wells. DMSO was used as a vehicle control. • c) After 24 hrs the plate was removed from CO2 incubator and 5 μL of CCK-8 (Dojindo Molecular Technologies, Inc. USA, catalog, no. CK04-20) per well was added. • d) The plate was then placed at 37° C. for 2 hrs. • e) The absorbance was recorded at 450 nm. • f) The percent cytotoxicity was calculated using the following formula
The IC50 value was estimated by visual inspection of the concentration-effect curve. For calculation of mean IC50 values over the fourteen cell lines as tested, the geometric mean was selected.
The assays were designed as described above in example 16.
The IC50 value was estimated by visual inspection of the concentration-effect curve. For calculation of mean IC50 values over the six cell lines (PC3, MDA MB, HCT116, MCF7, MIAPaCa2, MCF10A) as tested, the geometric mean was selected.

[2] = test system: MiaPaca2 (Pancreatic Cancer); assay: Monolayer assay (CCK-8 cytotoxicity); type: cell-based; details: Homo sapiens, MIA PaCa-2, MiaPaca 2, Pancreatic, 24 hrs exposure
Protocol: as §1
as §2, with “Adherent cells were trypsinised using Trypsin-EDTA (Sigma) and maintained. All cell lines were purchased from ATCC (Rockville, Md., USA).” left out
Compound of Formula (1a) [described in example 7] was dissolved in DMSO to give a required stock solution of 20 mM. […] Each concentration was evaluated in triplicate. […]

[3] = Solubility (physical properties); type: physicochemical
HeLa cancer cells = assay: Detection of FITC Annexin V apoptosis by flow cytometry; type: cell-based, human; details: for cells positive for annexin V staining (M2): HeLa cells, 12 hrs
Source text: The annexin V assay, a classical technique for detecting apoptosis, is the most commonly used method for detecting apoptosis by flow cytometry. One of the earliest features of apoptosis is the translocation of phosphatidylserine from the inner to the outer leaflet of the plasma membrane, thereby exposing phosphatidylserine to the external environment.
Annexin V (cat. no. 556420, BD Biosciences, USA) binds to phosphatidylserine exposed on the cell surface and identifies cells at an earlier stage of apoptosis. • a) HeLa cancer cells [referred to in step 1 of example 16] were seeded at a density of 0.5×10^6 cells/2000 μL well, in a tissue culture grade […] and allowed them to recover for 12 hrs in a humidified 5±0.2% CO2 incubator at 37±0.5° C. • b) After 12 hrs, 5 μL of 200× (200 times higher than required concentration is represented as 200×) compound of Formula (1a) dissolved in DMSO [step 2, example 16] was added to above tissue culture plate seeded with HeLa cancer cells. The final test concentration of the compound of Formula (1a) was 0.0003 μM, 0.003 μM and 0.01 μM. […] The population present in M1 and M2 were determined using FACS analysis.

SMILES: CC(C)CC1CCC(O)(C(C)(O)C(=O)NC2C(=O)N3NCCCC3C(=O)N(O)C(C)C(=O)NCC(=O)N3NCCCC3C(=O)N(O)C(C)C(=O)OC2C(C)C)OC1C (stereo not drawn) [Formula (1a), N-(6,18-dihydroxy-22-isopropyl-7,19-dimethyl-5,8,11,17,20,24-hexaoxotetracosa hydrodipyridazino[6,1-f:6′,1′-o][1,4,7,10,13,16]oxapentaazacyclononadecin-23-yl)-2-hydroxy-2-(2-hydroxy-5-isobutyl-6-methyltetrahydro-2H-pyran-2-yl)propanamide]
- IC50 ([1]; Homo sapiens, MCF-10A, 24 h): 19 nM
- IC50 [1]: 19.7 ± 3.1 nM
- IC50 [2]: 25.3 ± 4.6 nM
- Solubility in organic solvents ([3]; chloroform, ethyl acetate and methanol): Soluble in chloroform, ethyl acetate and methanol;
- Solubility in water ([3]; water): insoluble in water
- induction of apoptosis (in words) (HeLa cancer cells; HeLa cancer cells, conclusion): induces cell death through apoptosis
- cells positive for annexin V staining (M2) (HeLa cancer cells; 0.0003 μM): 33.80%
- cells positive for annexin V staining (M2) (HeLa cancer cells; 0.003 μM): 40.27%
- cells positive for annexin V staining (M2) (HeLa cancer cells; 0.01 μM): 59.05%
